Tests used:
SpNanB [1] = target: T1, SpNanB (Streptococcus pneumoniae serotype 4, UniProt Q54727, E68D/K536E/K577E/N393D/S59P); experiment: Substrate specificity of SpNanB; conditions: pNP-tagged α2-3-linked sialosides
SpNanC [2] = experiment: Substrate specificity assay of SpNanC; conditions: sialoside substrate 0.3 mM; SpNanC (2 μg); Tris-HCl pH 7.0; 30 min, 37° C.
hNEU2 = hNEU2 (Homo sapiens, UniProt Q9Y3R4); experiment: Sialidase inhibition assay (Example 4); assay type: biochemical; conditions: pH 5, 0.1 mM of each inhibitor, substrate Neu5Acα2-3GalβpNP 0.3 mM, read-out: Percentage inhibition (%) against hNEU2
CpNanH = CpNanH (Clostridium perfringens, UniProt P10481); experiment: biochemical; conditions: pH 5.0; read-out: Percentage inhibition (%) against CpNanH
BiNanH2 = BiNanH2 (Bifidobacterium longum subsp. infantis, UniProt A0ACD7UU12); experiment: Sialidase inhibition assay (Example 4); assay type: biochemical; conditions: pH 5, read-out: Percentage inhibition (%) against BiNanH2, 0.1 mM of each inhibitor, substrate Neu5Acα2-3GalβpNP 0.3 mM
AuSialidase = target: T2, AuSialidase (Paenarthrobacter ureafaciens, UniProt Q5W7Q2); experiment: Sialidase inhibition assay (Example 4); assay type: biochemical, Arthrobacter ureafaciens; conditions: pH 5.5, read-out: Percentage inhibition (%) against AuSialidase, 0.1 mM of each inhibitor, substrate Neu5Acα2-3GalβpNP 0.3 mM
T2 sequence (Q5W7Q2 39-990): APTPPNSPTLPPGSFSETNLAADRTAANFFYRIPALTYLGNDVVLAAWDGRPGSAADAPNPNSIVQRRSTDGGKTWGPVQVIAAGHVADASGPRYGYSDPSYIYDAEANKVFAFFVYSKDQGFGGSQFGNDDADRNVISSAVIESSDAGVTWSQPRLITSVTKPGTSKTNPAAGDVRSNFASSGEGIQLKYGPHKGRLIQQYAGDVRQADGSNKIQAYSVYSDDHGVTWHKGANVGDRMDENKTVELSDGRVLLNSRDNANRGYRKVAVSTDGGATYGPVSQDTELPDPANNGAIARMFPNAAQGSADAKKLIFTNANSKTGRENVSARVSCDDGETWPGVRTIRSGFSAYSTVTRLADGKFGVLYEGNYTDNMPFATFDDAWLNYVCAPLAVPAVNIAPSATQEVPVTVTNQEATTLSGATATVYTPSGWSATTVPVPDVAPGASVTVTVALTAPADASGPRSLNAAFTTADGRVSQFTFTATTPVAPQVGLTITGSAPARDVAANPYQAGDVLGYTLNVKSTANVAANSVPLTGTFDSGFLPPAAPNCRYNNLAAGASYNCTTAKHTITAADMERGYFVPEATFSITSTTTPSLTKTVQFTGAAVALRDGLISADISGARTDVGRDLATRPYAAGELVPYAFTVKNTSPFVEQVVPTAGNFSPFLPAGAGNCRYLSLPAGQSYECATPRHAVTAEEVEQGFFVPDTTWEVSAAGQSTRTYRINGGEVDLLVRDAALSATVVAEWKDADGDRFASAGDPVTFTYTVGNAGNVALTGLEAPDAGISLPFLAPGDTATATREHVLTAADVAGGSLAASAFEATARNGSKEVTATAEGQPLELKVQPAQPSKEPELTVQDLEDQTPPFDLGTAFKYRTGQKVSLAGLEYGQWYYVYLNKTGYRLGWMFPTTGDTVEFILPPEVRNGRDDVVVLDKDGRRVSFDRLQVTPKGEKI
Experimental: (§1) The assay conditions varied for different sialidases as described below: SpNanA (0.0015 μg), NaOAc buffer (100 mM, pH 6.0); SpNanB (0.003 μg), NaOAc buffer (100 mM, pH 6.0); SpNanC (0.02 μg), MES buffer (100 mM, pH 6.5); AuSialidase (1.0 mU), NaOAc buffer (100 mM, pH 5.5); CpNanI (2.0 mU), MES buffer (100 mM, pH 5.0); CpNanH (0.5 mU), MES buffer (100 mM, pH 5.0); VcSialidase (1.5 mU), NaCl (150 mM), CaCl2) (10 mM), NaOAc buffer (100 mM, pH 5.5); PmST1 (34.4 μg), NaOAc buffer (100 mM, pH 5.5); BiNanH2, NaOAc buffer (100 mM, pH 5.0); hNEU2 (22.0 μg), MES buffer (100 mM, pH 5.0). The reactions were incubated for 30 min at 37° C., and were stopped by adding CAPS buffer (N-cyclohexyl-3-aminopropane sulfonic acid, 40 μL, 0.5 M, pH 10.5). The amount of the para-nitrophenolate formed was determined by measuring the A405 nm Of the reaction mixtures using a microplate reader.
(§2) The percentage inhibitions were determined using a concentration of 0.1 mM of each inhibitor, with reactions without inhibitors as controls. […] The values of IC50 were calculated by the software Grafit 5.0.

CpNanI = assay type: biochemical, Clostridium perfringens; conditions: 0.1 mM of each inhibitor; substrate Neu5Acα2-3GalβpNP 0.3 mM; pH 5.0
SpNanB [3] = target: T1, SpNanB; experiment: Sialidase inhibition assay (Example 4); assay type: biochemical; conditions: pH 6, read-out: Percentage inhibition (%) against SpNanB
SpNanC [4] = target: SpNanC (Streptococcus pneumoniae, UniProt A0A0H2UQE4); experiment: Sialidase inhibition assay (Example 4); assay type: biochemical; conditions: pH 6.5, read-out: Percentage inhibition (%) against SpNanC
SpNanA = SpNanA (Streptococcus pneumoniae, UniProt P62575); experiment: Sialidase inhibition assay (Example 4); assay type: biochemical; conditions: for inhibition at 100 µM: pH 6, read-out: Percentage inhibition (%) against SpNanA, 0.1 mM of each inhibitor, substrate Neu5Acα2-3GalβpNP 0.3 mM, pH 6.0
PmST1 = PmST1 (Pasteurella multocida, UniProt Q15KI8); experiment: Sialidase inhibition assay (Example 4); assay type: biochemical; conditions: 0.1 mM of each inhibitor; substrate Neu5Acα2-3GalβpNP 0.3 mM; pH 5.5; read-out: Percentage inhibition (%) against PmST1
Experimental: as §1, §2

VcSialidase = VcSialidase (Vibrio cholerae serotype O1, UniProt P0C6E9); experiment: biochemical; conditions: pH 5.5, read-out: Percentage inhibition (%) against VcSialidase, 0.1 mM of each inhibitor, substrate Neu5Acα2-3GalβpNP 0.3 mM

Sequence of hNEU2 (Q9Y3R4 whole entry): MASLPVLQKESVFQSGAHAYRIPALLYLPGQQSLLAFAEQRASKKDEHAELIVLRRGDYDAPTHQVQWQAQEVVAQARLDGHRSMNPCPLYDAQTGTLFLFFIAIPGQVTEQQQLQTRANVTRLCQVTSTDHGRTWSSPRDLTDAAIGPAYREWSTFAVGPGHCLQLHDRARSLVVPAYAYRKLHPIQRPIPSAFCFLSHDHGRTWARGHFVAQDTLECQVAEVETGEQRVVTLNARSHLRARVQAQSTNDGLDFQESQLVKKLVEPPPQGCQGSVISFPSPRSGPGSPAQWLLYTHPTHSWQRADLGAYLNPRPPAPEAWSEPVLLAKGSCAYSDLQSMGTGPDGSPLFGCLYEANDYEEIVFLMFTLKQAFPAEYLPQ
Sequence of BiNanH2 (A0ACD7UU12 entry or part of it): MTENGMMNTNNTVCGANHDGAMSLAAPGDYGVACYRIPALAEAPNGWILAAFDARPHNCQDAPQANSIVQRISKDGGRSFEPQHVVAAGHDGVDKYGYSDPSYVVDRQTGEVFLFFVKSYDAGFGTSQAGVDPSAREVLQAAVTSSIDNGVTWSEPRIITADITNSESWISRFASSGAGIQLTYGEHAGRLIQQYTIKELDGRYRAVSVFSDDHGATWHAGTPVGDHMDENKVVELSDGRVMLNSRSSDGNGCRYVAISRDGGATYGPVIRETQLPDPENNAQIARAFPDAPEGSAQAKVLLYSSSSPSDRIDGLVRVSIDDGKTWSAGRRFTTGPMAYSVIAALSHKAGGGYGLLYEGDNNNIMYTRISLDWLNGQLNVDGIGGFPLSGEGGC

Compound	Recognition by SpNanB (substrate specificity) (SpNanB [1])	Percentage conversion (%) by SpNanC (SpNanC [2]) [%]	further results
COC(C(O)CO)C1OC(OC2C(O)C(CO)OC(Oc3ccc([N+](=O)[O-])cc3)C2O)(C(=O)O)CC(O)C1NC(C)=O (stereo not drawn) [Neu5Ac7OMeα2-3GalβpNP]	+ (+ represents >80% conversion)	96.5 ± 1.7	–
CC(=O)N[C@H]1[C@H](C[C@H](O)CO)O[C@@](O[C@H]2[C@@H](O)[C@@H](CO)O[C@@H](Oc3ccc([N+](=O)[O-])cc3)[C@@H]2O)(C(=O)O)C[C@@H]1O [Neu5Ac7deoxyα2-3GalβpNP]	+ (+ represents >80% conversion)	91.2 ± 1.8	–
CC(=O)N[C@H]1[C@H]([C@H](O)[C@H](O)CF)O[C@@](O[C@H]2[C@@H](O)[C@@H](CO)O[C@@H](Oc3ccc([N+](=O)[O-])cc3)[C@@H]2O)(C(=O)O)C[C@@H]1O [Neu5Ac9Fα2-3GalβpNP]	+ (+ represents >80% conversion)	75.6 ± 3.9	–
COCC(O)C(O)C1OC(OC2C(O)C(CO)OC(Oc3ccc([N+](=O)[O-])cc3)C2O)(C(=O)O)CC(O)C1NC(C)=O (stereo not drawn) [Neu5Ac9OMeα2-3GalβpNP]	+ (+ represents >80% conversion)	88.5 ± 5.1	–
CC(=O)NC1C(O)CC(OC2C(O)C(CO)OC(Oc3ccc([N+](=O)[O-])cc3)C2O)(C(=O)O)OC1C(O)C(C)O (stereo not drawn) [Neu5Ac9deoxyα2-3GalβpNP]	+ (+ represents >80% conversion)	93.5 ± 3.1	–
O=C(CF)NC1C(O)CC(OC2C(O)C(CO)OC(Oc3ccc([N+](=O)[O-])cc3)C2O)(C(=O)O)OC1C(O)C(O)CO (stereo not drawn) [Neu5AcFα2-3GalβpNP]	+ (+ represents >80% conversion)	74.8 ± 3.2	–
[N-]=[N+]=NCC(=O)N[C@H]1[C@H]([C@H](O)[C@H](O)CO)O[C@@](O[C@H]2[C@@H](O)[C@@H](CO)O[C@@H](Oc3ccc([N+](=O)[O-])cc3)[C@@H]2O)(C(=O)O)C[C@@H]1O [Neu5AcN3α2-3GalβpNP]	+ (+ represents >80% conversion)	87.9 ± 1.6	–
COCC(=O)NC1C(O)CC(OC2C(O)C(CO)OC(Oc3ccc([N+](=O)[O-])cc3)C2O)(C(=O)O)OC1C(O)C(O)CO (stereo not drawn) [Neu5AcOMeα2-3GalβpNP]	+ (+ represents >80% conversion)	81.8 ± 1.7	–
O=C(CO)NC1C(O)CC(OC2C(O)C(CO)OC(Oc3ccc([N+](=O)[O-])cc3)C2O)(C(=O)O)OC1C(O)C(O)CF (stereo not drawn) [Neu5Gc9Fα2-3GalβpNP]	+ (+ represents >80% conversion)	72.3 ± 2.6	–
[N-]=[N+]=NCC(O)C(O)C1OC(OC2C(O)C(CO)OC(Oc3ccc([N+](=O)[O-])cc3)C2O)(C(=O)O)CC(O)C1NC(=O)CO (stereo not drawn) [Neu5Gc9N3α2-3GalβpNP]	+ (+ represents >80% conversion)	89.5 ± 3.5	–
COCC(O)C(O)C1OC(OC2C(O)C(CO)OC(Oc3ccc([N+](=O)[O-])cc3)C2O)(C(=O)O)CC(O)C1NC(=O)CO (stereo not drawn) [Neu5Gc9OMeα2-3GalβpNP]	+ (+ represents >80% conversion)	75.0 ± 1.9	–
C[C@@H](O)[C@@H](O)[C@@H]1O[C@@](O[C@H]2[C@@H](O)[C@@H](CO)O[C@@H](Oc3ccc([N+](=O)[O-])cc3)[C@@H]2O)(C(=O)O)C[C@H](O)[C@H]1NC(=O)CO [Neu5Gc9deoxyα2-3GalβpNP]	+ (+ represents >80% conversion)	85.5 ± 1.4	–
O=C(CO)NC1C(O)CC(OC2C(O)C(CO)OC(Oc3ccc([N+](=O)[O-])cc3)C2O)(C(=O)O)OC1C(O)C(O)CO (stereo not drawn) [Neu5Gcα2-3GalβpNP]	+ (+ represents >80% conversion)	80.6 ± 6.7	–
O=C(CO)N[C@@H]1C(O)C=C(C(=O)O)OC1[C@H](O)[C@H](O)CO (stereo partly drawn) [compound 7, 2,6-Anhydro-3,5-dideoxy-5-glycolylamido-D-glycero-D-galacto-non-2-enonic acid]	–	–	inhibition at 100 µM (hNEU2): > 50%; inhibition at 100 µM (CpNanH): 9%; inhibition at 100 µM (BiNanH2): 19%; inhibition at 100 µM (AuSialidase): 47%; Percentage inhibition (%) against CpNanI (CpNanI): 20%; inhibition at 100 µM (SpNanB [3]): 4%; inhibition at 100 µM (SpNanC [4]): 17%; inhibition at 100 µM (SpNanA): 14%; inhibition at 100 µM (PmST1): 2%
CC(=O)NC[C@@H](O)[C@@H](O)[C@@H]1OC(C(=O)O)=C[C@H](O)[C@H]1NC(C)=O [compound 9, 5,9-Diacetamido-2,6-anhydro-3,5,9-trideoxy-D-glycero-D-galacto-non-2-enonic acid]	–	–	inhibition at 100 µM (hNEU2): 27%; inhibition at 100 µM (CpNanH): 1%; inhibition at 100 µM (BiNanH2): 69%; inhibition at 100 µM (AuSialidase): 60%; Percentage inhibition (%) against CpNanI (CpNanI): 63%; inhibition at 100 µM (SpNanB [3]): 4%; inhibition at 100 µM (SpNanC [4]): 8%; IC50 (SpNanA): 11 ± 0.2 µM; inhibition at 100 µM (SpNanA): 86%; inhibition at 100 µM (PmST1): 19%; inhibition at 100 µM (VcSialidase): 45%
Neu5Ac7N3α2-3GalβpNP	+ (+ represents >80% conversion)	65.9 ± 1.1	–
